# Test system: HCT116
# Experiment: In vitro cytotoxicity, cell colony formation assay
# Format: cell-based
# Details: HCT116; 72 h with drug, colonies counted after 7 days; concentration producing 50% inhibition of colony formation; read-out: IN VITRO ID 50
# Procedure: In Vitro cytotoxicity measured by the cell colony formation assay
# Four hundred cells (HCT116) were plated in 60 mm Petri dishes containing 2.7 mL of medium (modified McCoy's 5a medium containing 10% fetal bovine serum and 100 units/mL penicillin and […] streptomycin). The cells were incubated in a CO2 incubator at 37 °C for 5 h for attachment to the bottom of Petri dishes. The compounds identified in Example 2 were made up fresh in medium at ten times the final concentration, and then 0.3 mL of this stock solution was added to the 2.7 mL of medium in the dish. The cells were then incubated with drugs for 72 h at 37 ° C. At the end of incubation the drug-containing media were decanted, the dishes were rinsed with 4 mL of Hank's Balance Salt Solution (HBSS), 5 mL of fresh medium was added, and the dishes were returned to the incubator for colony formation. The cell colonies were counted using a colony counter after incubation for 7 days.
row,SMILES,IC50
1,CCOC(=O)OC1C(=O)C2(C)C(O)CC3OCC3(OC(C)=O)C2C(OC(=O)c2ccccc2)C2(O)CC(OC(=O)C(O)C(C=C(C)C)NC(=O)OC(C)(C)C)C(C)=C1C2(C)C (centres unmarked) [Compound 1788],< 1 nM
2,CCOC(=O)OC1C(=O)C2(C)C(O)CC3OCC3(OC(C)=O)C2C(OC(=O)c2ccccc2)C2(O)CC(OC(=O)C(O)C(NC(=O)OC(C)(C)C)c3ccccn3)C(C)=C1C2(C)C (centres unmarked) [Compound 1799],< 1 nM
3,CCOC(=O)OC1C(=O)C2(C)C(O)CC3OCC3(OC(C)=O)C2C(OC(=O)c2ccccc2)C2(O)CC(OC(=O)C(O)C(NC(=O)OC(C)(C)C)c3cccnc3)C(C)=C1C2(C)C (centres unmarked) [Compound 1808],< 10 nM
4,CCOC(=O)OC1C(=O)C2(C)C(O)CC3OCC3(OC(C)=O)C2C(OC(=O)c2ccccc2)C2(O)CC(OC(=O)C(O)C(NC(=O)OC(C)(C)C)c3ccncc3)C(C)=C1C2(C)C (centres unmarked) [Compound 1811],< 1 nM
5,CCOC(=O)OC1C(=O)C2(C)C(O)CC3OCC3(OC(C)=O)C2C(OC(=O)c2ccccc2)C2(O)CC(OC(=O)C(O)C(NC(=O)OC(C)(C)C)c3ccco3)C(C)=C1C2(C)C (centres unmarked) [Compound 1822],< 1 nM
6,CCOC(=O)OC1C(=O)C2(C)C(O)CC3OCC3(OC(C)=O)C2C(OC(=O)c2ccccc2)C2(O)CC(OC(=O)C(O)C(NC(=O)OC(C)(C)C)c3ccsc3)C(C)=C1C2(C)C (centres unmarked) [Compound 1841],< 1 nM
7,CCOC(=O)OC1C(=O)C2(C)C(O)CC3OCC3(OC(C)=O)C2C(OC(=O)c2ccccc2)C2(O)CC(OC(=O)C(O)C(NC(=O)OC(C)(C)C)C3CCC3)C(C)=C1C2(C)C (centres unmarked) [Compound 1855],< 10 nM
8,CCOC(=O)OC1C(=O)C2(C)C(O)CC3OCC3(OC(C)=O)C2C(OC(=O)c2ccccc2)C2(O)CC(OC(=O)C(O)C(NC(=O)OC(C)(C)C)c3ccc([N+](=O)[O-])cc3)C(C)=C1C2(C)C (centres unmarked) [Compound 1866],< 1 nM
9,COC(=O)OC1C(=O)C2(C)C(O)CC3OCC3(OC(C)=O)C2C(OC(=O)c2ccccc2)C2(O)CC(OC(=O)C(O)C(C=C(C)C)NC(=O)OC(C)(C)C)C(C)=C1C2(C)C (centres unmarked) [Compound 1999],< 1 nM
10,COC(=O)OC1C(=O)C2(C)C(O)CC3OCC3(OC(C)=O)C2C(OC(=O)c2ccccc2)C2(O)CC(OC(=O)C(O)C(NC(=O)OC(C)(C)C)c3ccccn3)C(C)=C1C2(C)C (centres unmarked) [Compound 2002],< 1 nM
11,COC(=O)OC1C(=O)C2(C)C(O)CC3OCC3(OC(C)=O)C2C(OC(=O)c2ccccc2)C2(O)CC(OC(=O)C(O)C(NC(=O)OC(C)(C)C)c3cccnc3)C(C)=C1C2(C)C (centres unmarked) [Compound 2011],< 10 nM
12,COC(=O)OC1C(=O)C2(C)C(O)CC3OCC3(OC(C)=O)C2C(OC(=O)c2ccccc2)C2(O)CC(OC(=O)C(O)C(NC(=O)OC(C)(C)C)c3ccncc3)C(C)=C1C2(C)C (centres unmarked) [Compound 2020],< 1 nM
13,COC(=O)OC1C(=O)C2(C)C(O)CC3OCC3(OC(C)=O)C2C(OC(=O)c2ccccc2)C2(O)CC(OC(=O)C(O)C(NC(=O)OC(C)(C)C)c3cccs3)C(C)=C1C2(C)C (centres unmarked) [Compound 2044],< 1 nM
14,COC(=O)OC1C(=O)C2(C)C(O)CC3OCC3(OC(C)=O)C2C(OC(=O)c2ccccc2)C2(O)CC(OC(=O)C(O)C(NC(=O)OC(C)(C)C)c3ccsc3)C(C)=C1C2(C)C (centres unmarked) [Compound 2050],< 1 nM
15,COC(=O)OC1C(=O)C2(C)C(O)CC3OCC3(OC(C)=O)C2C(OC(=O)c2ccccc2)C2(O)CC(OC(=O)C(O)C(NC(=O)OC(C)(C)C)C(C)C)C(C)=C1C2(C)C (centres unmarked) [Compound 2062],< 10 nM
16,COC(=O)OC1C(=O)C2(C)C(O)CC3OCC3(OC(C)=O)C2C(OC(=O)c2ccccc2)C2(O)CC(OC(=O)C(O)C(NC(=O)OC(C)(C)C)C3CCC3)C(C)=C1C2(C)C (centres unmarked) [Compound 2077],< 10 nM
17,COC(=O)OC1C(=O)C2(C)C(O)CC3OCC3(OC(C)=O)C2C(OC(=O)c2ccccc2)C2(O)CC(OC(=O)C(O)C(NC(=O)OC(C)(C)C)c3ccc([N+](=O)[O-])cc3)C(C)=C1C2(C)C (centres unmarked) [Compound 2088],< 1 nM
18,COC(=O)OC1C(=O)C2(C)C(O)CC3OCC3(OC(C)=O)C2C(OC(=O)c2ccccc2)C2(O)CC(OC(=O)C(O)C(NC(=O)OC(C)(C)C)c3ccccc3)C(C)=C1C2(C)C (centres unmarked) [Compound 2092],< 1 nM

row,SMILES,IC50
1,CCOC(=O)OC1C(=O)C2(C)C(O)CC3OCC3(OC(C)=O)C2C(OC(=O)c2ccccc2)C2(O)CC(OC(=O)C(O)C(NC(=O)c3ccccc3)c3cccs3)C(C)=C1C2(C)C (centres unmarked) [Compound 2972],< 10 nM
2,CCOC(=O)OC1C(=O)C2(C)C(O)CC3OCC3(OC(C)=O)C2C(OC(=O)c2ccccc2)C2(O)CC(OC(=O)C(O)C(NC(=O)OC(C)C)c3cccs3)C(C)=C1C2(C)C (centres unmarked) [Compound 2999],< 1 nM
3,CCOC(=O)OC1C(=O)C2(C)C(O)CC3OCC3(OC(C)=O)C2C(OC(=O)c2ccccc2)C2(O)CC(OC(=O)C(O)C(NC(=O)OCC(C)C)c3cccs3)C(C)=C1C2(C)C (centres unmarked) [Compound 3003],< 10 nM
4,CCOC(=O)OC1C(=O)C2(C)C(O)CC3OCC3(OC(C)=O)C2C(OC(=O)c2ccccc2)C2(O)CC(OC(=O)C(O)C(NC(=O)c3ccco3)c3cccs3)C(C)=C1C2(C)C (centres unmarked) [Compound 3011],< 1 nM
5,CCOC(=O)OC1C(=O)C2(C)C(O)CC3OCC3(OC(C)=O)C2C(OC(=O)c2ccccc2)C2(O)CC(OC(=O)C(O)C(NC(=O)c3cccs3)c3cccs3)C(C)=C1C2(C)C (centres unmarked) [Compound 3020],< 1 nM
6,CCCC(=O)NC(c1cccs1)C(O)C(=O)OC1CC2(O)C(OC(=O)c3ccccc3)C3C4(OC(C)=O)COC4CC(O)C3(C)C(=O)C(OC(=O)OCC)C(=C1C)C2(C)C (centres unmarked) [Compound 3155],< 1 nM
7,CCOC(=O)OC1C(=O)C2(C)C(O)CC3OCC3(OC(C)=O)C2C(OC(=O)c2ccccc2)C2(O)CC(OC(=O)C(O)C(NC(=O)OCC(C)C)c3ccco3)C(C)=C1C2(C)C (centres unmarked) [Compound 3181],< 1 nM
8,CCOC(=O)OC1C(=O)C2(C)C(O)CC3OCC3(OC(C)=O)C2C(OC(=O)c2ccccc2)C2(O)CC(OC(=O)C(O)C(NC(=O)c3cccnc3)c3cccs3)C(C)=C1C2(C)C (centres unmarked) [Compound 3300],< 10 nM
9,CCOC(=O)OC1C(=O)C2(C)C(O)CC3OCC3(OC(C)=O)C2C(OC(=O)c2ccccc2)C2(O)CC(OC(=O)C(O)C(NC(=O)c3ccccn3)c3cccs3)C(C)=C1C2(C)C (centres unmarked) [Compound 3433],22.3 nM
10,CCCC(=O)NC(c1ccco1)C(O)C(=O)OC1CC2(O)C(OC(=O)c3ccccc3)C3C4(OC(C)=O)COC4CC(O)C3(C)C(=O)C(OC(=O)OCC)C(=C1C)C2(C)C (centres unmarked) [Compound 3929],< 1 nM
11,CCOC(=O)OC1C(=O)C2(C)C(O)CC3OCC3(OC(C)=O)C2C(OC(=O)c2ccccc2)C2(O)CC(OC(=O)C(O)C(NC(=O)OC(C)C)c3ccco3)C(C)=C1C2(C)C (centres unmarked) [Compound 3963],< 1 nM
12,CC=CC(=O)NC(c1ccco1)C(O)C(=O)OC1CC2(O)C(OC(=O)c3ccccc3)C3C4(OC(C)=O)COC4CC(O)C3(C)C(=O)C(OC(=O)OCC)C(=C1C)C2(C)C (centres unmarked) [Compound 4000],< 1 nM
13,CCOC(=O)OC1C(=O)C2(C)C(O)CC3OCC3(OC(C)=O)C2C(OC(=O)c2ccccc2)C2(O)CC(OC(=O)C(O)C(NC(=O)c3cccs3)c3ccco3)C(C)=C1C2(C)C (centres unmarked) [Compound 4088],< 10 nM
14,CCOC(=O)OC1C(=O)C2(C)C(O)CC3OCC3(OC(C)=O)C2C(OC(=O)c2ccccc2)C2(O)CC(OC(=O)C(O)C(NC(=O)c3ccccc3)c3ccco3)C(C)=C1C2(C)C (centres unmarked) [Compound 4090],< 1 nM
15,CCOC(=O)OC1C(=O)C2(C)C(O)CC3OCC3(OC(C)=O)C2C(OC(=O)c2ccccc2)C2(O)CC(OC(=O)C(O)C(C=C(C)C)NC(=O)OCC(C)C)C(C)=C1C2(C)C (centres unmarked) [Compound 5155],< 10 nM
16,CCOC(=O)OC1C(=O)C2(C)C(O)CC3OCC3(OC(C)=O)C2C(OC(=O)c2ccccc2)C2(O)CC(OC(=O)C(O)C(NC(=O)OC(C)(C)C)C3CC3)C(C)=C1C2(C)C (centres unmarked) [Compound 5171],< 1 nM
17,CCOC(=O)OC1C(=O)C2(C)C(O)CC3OCC3(OC(C)=O)C2C(OC(=O)c2ccccc2)C2(O)CC(OC(=O)C(O)C(NC(=O)C(C)C)c3ccco3)C(C)=C1C2(C)C (centres unmarked) [Compound 6466],< 10 nM

# — patent EP1285919A1, “C10 Carbonate substituted taxanes as antitumor agents” (Florida State University Research Foundation, Inc., priority 2001, dated 2003)
